# Reference: PubChem BioAssay (NCI)
#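 1) Cells in 96-well plates. 2) Compound, 48 h, 5 concentrations. 3) Linear interpolation between surrounding doses. 4) Unreached endpoint = highest concentration. Definition used: TGI = concentration required for complete inhibition of growth.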
# What was measured:
# Experiment in all cases: NCI tumour cell line growth inhibition, 48 h
# OVCAR-5 ovarian = system: OVCAR-5 ovarian
# MALME-3M melanoma = system: MALME-3M melanoma
# SW-620 colon = system: SW-620 colon
# SK-MEL-5 melanoma = system: SK-MEL-5 melanoma
# ACHN renal = system: ACHN renal
# COLO 205 colon = system: COLO 205 colon
# HCC-2998 colon = system: HCC-2998 colon
# M14 melanoma = system: M14 melanoma
# UACC-62 melanoma = system: UACC-62 melanoma
# RPMI-8226 leukemia = system: RPMI-8226 leukemia
# OVCAR-4 ovarian = system: OVCAR-4 ovarian
# OVCAR-8 ovarian = system: OVCAR-8 ovarian
# HCT-116 colon = system: HCT-116 colon
# CCRF-CEM leukemia = system: CCRF-CEM leukemia
# NCI-H522 lung = system: NCI-H522 lung
# UO-31 renal = system: UO-31 renal
# RXF 393 renal = system: RXF 393 renal
# MCF7 breast = system: MCF7 breast
# MDA-MB-231 breast = system: MDA-MB-231 breast
structure (smiles),measurement,setting,value
NCCN1C(=O)C2C3c4ccccc4C(c4ccccc43)C2C1=O (centres undefined),TGI,OVCAR-5 ovarian,> 100 µM
same,TGI,MALME-3M melanoma,> 100 µM
same,TGI,SW-620 colon,> 100 µM
same,TGI,SK-MEL-5 melanoma,> 100 µM
same,TGI,ACHN renal,> 100 µM
same,TGI,COLO 205 colon,> 100 µM
same,TGI,HCC-2998 colon,> 100 µM
same,TGI,M14 melanoma,> 100 µM
same,TGI,UACC-62 melanoma,> 100 µM
same,TGI,RPMI-8226 leukemia,> 100 µM
same,TGI,OVCAR-4 ovarian,> 100 µM
same,TGI,OVCAR-8 ovarian,> 100 µM
same,TGI,HCT-116 colon,> 100 µM
same,TGI,CCRF-CEM leukemia,> 100 µM
same,TGI,NCI-H522 lung,> 100 µM
same,TGI,UO-31 renal,> 100 µM
Cc1nn(-c2nc3ccccc3s2)c2c1C(=O)c1ccccc1-2,TGI,OVCAR-5 ovarian,> 100 µM
same,TGI,MALME-3M melanoma,> 100 µM
same,TGI,SW-620 colon,> 100 µM
same,TGI,SK-MEL-5 melanoma,> 100 µM
same,TGI,ACHN renal,> 100 µM
same,TGI,COLO 205 colon,> 100 µM
same,TGI,HCC-2998 colon,> 100 µM
same,TGI,RXF 393 renal,> 100 µM
same,TGI,M14 melanoma,> 100 µM
same,TGI,UACC-62 melanoma,> 100 µM
same,TGI,RPMI-8226 leukemia,> 100 µM
same,TGI,OVCAR-4 ovarian,64.1 µM
same,TGI,HCT-116 colon,> 100 µM
same,TGI,NCI-H522 lung,> 100 µM
same,TGI,UO-31 renal,> 100 µM
C/C(=N\NC(=S)N(C)CCN(C)C(=S)N/N=C(\C)c1ccccn1)c1ccccn1,TGI,OVCAR-5 ovarian,42 µM
same,TGI,MALME-3M melanoma,11.1 µM
same,TGI,SW-620 colon,22.9 µM
same,TGI,SK-MEL-5 melanoma,2.16 µM
same,TGI,ACHN renal,11.4 µM
same,TGI,COLO 205 colon,0.912 µM
same,TGI,HCC-2998 colon,38 µM
same,TGI,RXF 393 renal,3.46 µM
same,TGI,M14 melanoma,> 100 µM
same,TGI,UACC-62 melanoma,8.07 µM
same,TGI,RPMI-8226 leukemia,23.7 µM
same,TGI,OVCAR-4 ovarian,14.8 µM
same,TGI,OVCAR-8 ovarian,7.32 µM
same,TGI,HCT-116 colon,11.5 µM
same,TGI,CCRF-CEM leukemia,12.1 µM
same,TGI,NCI-H522 lung,18.8 µM
same,TGI,MCF7 breast,18.3 µM
same,TGI,MDA-MB-231 breast,13.1 µM
same,TGI,UO-31 renal,15.4 µM
O=[N+]([O-])c1c(C=Nc2ccccc2)oc(-c2ccc3c(c2)OCO3)c1-c1ccc2c(c1)OCO2,TGI,OVCAR-5 ovarian,> 100 µM
same,TGI,MALME-3M melanoma,> 100 µM
same,TGI,SW-620 colon,> 100 µM
same,TGI,SK-MEL-5 melanoma,> 100 µM
same,TGI,ACHN renal,> 100 µM
same,TGI,COLO 205 colon,> 100 µM
same,TGI,HCC-2998 colon,> 100 µM
same,TGI,RXF 393 renal,> 100 µM
same,TGI,M14 melanoma,> 100 µM
same,TGI,UACC-62 melanoma,> 100 µM
same,TGI,RPMI-8226 leukemia,> 100 µM
same,TGI,OVCAR-4 ovarian,> 100 µM
same,TGI,OVCAR-8 ovarian,> 100 µM
same,TGI,HCT-116 colon,> 100 µM
same,TGI,NCI-H522 lung,> 100 µM
same,TGI,UO-31 renal,> 100 µM
CC(C)SC(NC(=O)C1C(C)(C)CCC1(C)C)C(=O)O (centres undefined),TGI,OVCAR-5 ovarian,> 100 µM
same,TGI,SW-620 colon,> 100 µM
same,TGI,SK-MEL-5 melanoma,> 100 µM
same,TGI,ACHN renal,> 100 µM
same,TGI,COLO 205 colon,> 100 µM
same,TGI,HCC-2998 colon,> 100 µM
same,TGI,M14 melanoma,> 100 µM
same,TGI,UACC-62 melanoma,> 100 µM
same,TGI,RPMI-8226 leukemia,> 100 µM
same,TGI,OVCAR-8 ovarian,> 100 µM
same,TGI,HCT-116 colon,> 100 µM
same,TGI,CCRF-CEM leukemia,> 100 µM
same,TGI,MCF7 breast,> 100 µM
same,TGI,MDA-MB-231 breast,> 100 µM
same,TGI,UO-31 renal,> 100 µM
COc1c(C)cc2c(c1O)C1NC(C2)[C@H](O)N2C3COC(=O)[C@@]4(CS[C@@H](c5c(OC(C)=O)c(C)c6c(c53)OCO6)C12)NCCC1=C4NC2C=CC=CC12 (some centres undefined),TGI,MALME-3M melanoma,< 0.01 µM
same,TGI,SW-620 colon,< 0.01 µM
same,TGI,SK-MEL-5 melanoma,< 0.01 µM
same,TGI,ACHN renal,0.0148 µM
same,TGI,HCC-2998 colon,< 0.01 µM
same,TGI,RXF 393 renal,< 0.01 µM
same,TGI,M14 melanoma,< 0.01 µM
same,TGI,UACC-62 melanoma,< 0.01 µM
same,TGI,RPMI-8226 leukemia,0.0161 µM
same,TGI,OVCAR-8 ovarian,< 0.01 µM
same,TGI,CCRF-CEM leukemia,< 0.01 µM
same,TGI,UO-31 renal,0.0342 µM
O=C1C(=Cc2cccc(O)c2)N=C(c2ccccc2)N1n1c(-c2ccccc2)nc2ccccc2c1=O,TGI,OVCAR-5 ovarian,78.3 µM
same,TGI,MALME-3M melanoma,92.3 µM
same,TGI,SW-620 colon,> 100 µM
same,TGI,SK-MEL-5 melanoma,48 µM
same,TGI,ACHN renal,58 µM
same,TGI,COLO 205 colon,79.7 µM
same,TGI,RXF 393 renal,83.8 µM
same,TGI,M14 melanoma,> 100 µM
same,TGI,UACC-62 melanoma,50.9 µM
same,TGI,RPMI-8226 leukemia,50.2 µM
same,TGI,OVCAR-4 ovarian,> 100 µM
same,TGI,OVCAR-8 ovarian,98.5 µM
same,TGI,HCT-116 colon,43.2 µM
same,TGI,CCRF-CEM leukemia,75.5 µM
same,TGI,NCI-H522 lung,56 µM
same,TGI,MDA-MB-231 breast,> 100 µM
same,TGI,UO-31 renal,61.1 µM
CCOC(=O)C1=CC(C)(C(=O)OCC)Nc2c(nc(OC)[nH]c2=O)N1 (centres undefined),TGI,OVCAR-5 ovarian,> 10 µM
same,TGI,MALME-3M melanoma,> 10 µM
same,TGI,SW-620 colon,> 10 µM
same,TGI,SK-MEL-5 melanoma,> 10 µM
same,TGI,ACHN renal,> 10 µM
same,TGI,COLO 205 colon,> 10 µM
same,TGI,HCC-2998 colon,> 10 µM
same,TGI,RXF 393 renal,> 10 µM
same,TGI,M14 melanoma,> 10 µM
same,TGI,RPMI-8226 leukemia,> 10 µM
same,TGI,OVCAR-4 ovarian,> 10 µM
same,TGI,OVCAR-8 ovarian,> 10 µM
same,TGI,HCT-116 colon,> 10 µM
same,TGI,CCRF-CEM leukemia,> 10 µM
same,TGI,NCI-H522 lung,> 10 µM
same,TGI,MCF7 breast,> 10 µM
same,TGI,MDA-MB-231 breast,> 10 µM
same,TGI,UO-31 renal,> 10 µM
CN(CC(=O)O)c1ncc2c(n1)-c1ccccc1OC2,TGI,OVCAR-5 ovarian,> 100 µM
same,TGI,MALME-3M melanoma,> 100 µM
same,TGI,SW-620 colon,> 100 µM
same,TGI,SK-MEL-5 melanoma,> 100 µM
same,TGI,ACHN renal,> 100 µM
same,TGI,COLO 205 colon,> 100 µM
same,TGI,RXF 393 renal,> 100 µM
same,TGI,M14 melanoma,> 100 µM
same,TGI,UACC-62 melanoma,> 100 µM
same,TGI,RPMI-8226 leukemia,> 100 µM
same,TGI,OVCAR-4 ovarian,> 100 µM
same,TGI,OVCAR-8 ovarian,> 100 µM
same,TGI,HCT-116 colon,> 100 µM
same,TGI,CCRF-CEM leukemia,> 100 µM
same,TGI,NCI-H522 lung,> 100 µM
same,TGI,MCF7 breast,> 100 µM
same,TGI,MDA-MB-231 breast,> 100 µM
same,TGI,UO-31 renal,> 100 µM
[O-][n+]1onc2c1/C(=N/O)CCC2,TGI,OVCAR-5 ovarian,> 100 µM
same,TGI,MALME-3M melanoma,> 100 µM
same,TGI,SW-620 colon,> 100 µM
same,TGI,SK-MEL-5 melanoma,> 100 µM
same,TGI,ACHN renal,> 100 µM
same,TGI,COLO 205 colon,> 100 µM
same,TGI,HCC-2998 colon,> 100 µM
same,TGI,RXF 393 renal,> 100 µM
same,TGI,M14 melanoma,> 100 µM
same,TGI,UACC-62 melanoma,> 100 µM
same,TGI,RPMI-8226 leukemia,> 100 µM
same,TGI,OVCAR-4 ovarian,> 100 µM
same,TGI,OVCAR-8 ovarian,> 100 µM
same,TGI,HCT-116 colon,> 100 µM
same,TGI,CCRF-CEM leukemia,> 100 µM
same,TGI,NCI-H522 lung,> 100 µM
same,TGI,MCF7 breast,> 100 µM
same,TGI,MDA-MB-231 breast,> 100 µM
same,TGI,UO-31 renal,> 100 µM
CCOP(=O)(OCC)C(C(=O)OC)C(=O)C(=O)Nc1c(C)cc(Br)cc1C (centres undefined),TGI,OVCAR-5 ovarian,> 100 µM
same,TGI,MALME-3M melanoma,> 100 µM
same,TGI,SW-620 colon,> 100 µM
same,TGI,SK-MEL-5 melanoma,> 100 µM
same,TGI,ACHN renal,> 100 µM
same,TGI,COLO 205 colon,> 100 µM
same,TGI,HCC-2998 colon,> 100 µM
same,TGI,RXF 393 renal,> 100 µM
same,TGI,M14 melanoma,> 100 µM
same,TGI,UACC-62 melanoma,> 100 µM
same,TGI,RPMI-8226 leukemia,> 100 µM
same,TGI,OVCAR-4 ovarian,> 100 µM
same,TGI,OVCAR-8 ovarian,> 100 µM
same,TGI,HCT-116 colon,> 100 µM
same,TGI,CCRF-CEM leukemia,> 100 µM
same,TGI,NCI-H522 lung,> 100 µM
same,TGI,UO-31 renal,> 100 µM
COc1ccc(C=C(c2ccc(OCc3ccccc3)cc2)c2ccc(OCc3ccccc3)cc2)cc1,TGI,OVCAR-5 ovarian,> 100 µM
same,TGI,MALME-3M melanoma,> 100 µM
same,TGI,SW-620 colon,> 100 µM
same,TGI,SK-MEL-5 melanoma,> 100 µM
same,TGI,ACHN renal,> 100 µM
same,TGI,COLO 205 colon,> 100 µM
same,TGI,HCC-2998 colon,> 100 µM
same,TGI,RXF 393 renal,> 100 µM
same,TGI,M14 melanoma,> 100 µM
same,TGI,UACC-62 melanoma,> 100 µM
same,TGI,RPMI-8226 leukemia,> 100 µM
same,TGI,OVCAR-4 ovarian,> 100 µM
same,TGI,OVCAR-8 ovarian,> 100 µM
same,TGI,NCI-H522 lung,> 100 µM
same,TGI,UO-31 renal,> 100 µM
COc1ccc2[nH]cc(CCNC(=O)[C@](O)(Cc3cn(C)c4ccccc34)[C@@]3(O)OCC(O)C3O)c2c1 (some centres undefined),TGI,OVCAR-5 ovarian,> 100 µM
same,TGI,MALME-3M melanoma,> 100 µM
same,TGI,SW-620 colon,> 100 µM
same,TGI,SK-MEL-5 melanoma,> 100 µM
same,TGI,ACHN renal,> 100 µM
same,TGI,COLO 205 colon,> 100 µM
same,TGI,HCC-2998 colon,> 100 µM
same,TGI,RXF 393 renal,> 100 µM
same,TGI,M14 melanoma,> 100 µM
same,TGI,UACC-62 melanoma,> 100 µM
same,TGI,RPMI-8226 leukemia,> 100 µM
same,TGI,OVCAR-4 ovarian,> 100 µM
same,TGI,OVCAR-8 ovarian,> 100 µM
same,TGI,HCT-116 colon,> 100 µM
same,TGI,CCRF-CEM leukemia,> 100 µM
same,TGI,NCI-H522 lung,> 100 µM
COc1cc(/C=C\c2cccnc2)cc(OC)c1OC,TGI,OVCAR-5 ovarian,> 100 µM
same,TGI,MALME-3M melanoma,> 100 µM
same,TGI,SW-620 colon,> 100 µM
same,TGI,SK-MEL-5 melanoma,40.8 µM
same,TGI,ACHN renal,> 100 µM
same,TGI,COLO 205 colon,69 µM
same,TGI,RXF 393 renal,88.5 µM
same,TGI,M14 melanoma,97.2 µM
same,TGI,UACC-62 melanoma,> 100 µM
same,TGI,RPMI-8226 leukemia,47.7 µM
same,TGI,OVCAR-4 ovarian,> 100 µM
same,TGI,OVCAR-8 ovarian,> 100 µM
same,TGI,HCT-116 colon,> 100 µM
same,TGI,CCRF-CEM leukemia,> 100 µM
same,TGI,NCI-H522 lung,96.3 µM
same,TGI,UO-31 renal,> 100 µM
